Consider two molecules from publication PMC9287337 (Scientific Reports, 2022).

This series in a line: Cell viability assay in presence or absence of Dorsomorphin. Type of series: cell-based, mouse. Particulars: mouse, serum-starved C2C12 cells. As for the experimental part:
To resolve whether the SY-LB-35 or SY-LB-57 compound requires type I BMP receptor activity for the induction of cell viability in C2C12 cells, cell viability assays were carried out in the presence or absence of 10 µM DM.
C2C12 cells (100 µL) were seeded in a 96-well plate at 5 × 10^5 cells/mL and incubated overnight in complete growth media to achieve 80% confluency followed by serum-starvation for 16–18 h. […] For BMP receptor inhibition, cell viability assays were carried out in presence or absence of Dorsomorphin (DM; 10 µM; Sigma Aldrich, St. Louis, MO, USA), a non-selective inhibitor of type I BMP receptor activity.
Next, reagents from the RealTime-Glo™ MT Cell Viability Assay Kit (Promega, Madison, WI, USA) were diluted in SS medium and used according to manufacturer’s protocol. Cellular luminescence was measured using the FilterMax F5 Multi-mode Microplate Reader (Molecular Devices, San Jose, CA, USA). Data from three independent experiments with individual experiments carried out in triplicate was determined and reported as a percentage of control.

Setting [1] is: Dorsomorphin 10 µM, read-out: Cell viability, DM(+).
[2] abbreviates: without Dorsomorphin, read-out: Cell viability, DM(−).

By viability is commonly meant a read-out of living cells in per cent, often relative to untreated cells.

Where two headings read alike, the source gives them in different places.

With `Oc1ccc2[nH]c(-c3nc4ccccc4[nH]3)cc2c1` [SY-LB-35], under setting [1], the viability at 24 h, 0.01 µM stood at 98%; the viability at 24 h, 0.1 µM amounted to 103%; the viability at 24 h, 1 µM stood at 102%; the viability at 24 h, 10 µM worked out at 82%. Further, the viability at 24 h, 100 µM under setting [1] turned out to be 30%. Also, under setting [2], the viability at 24 h, 0.01 µM turned out to be 266%; the viability at 24 h, 0.1 µM was 269%; the viability at 24 h, 1 µM was 218%; the viability at 24 h, 10 µM amounted to 147%. Under setting [2], the viability at 24 h, 100 µM was determined as 69%.
As for `COc1ccc2[nH]c(-c3nc4ccccc4[nH]3)cc2c1` [SY-LB-57], under setting [1], the viability at 24 h, 0.01 µM came to 120%; the viability at 24 h, 0.1 µM was found to be 107%; the viability at 24 h, 1 µM came out at 111%; the viability at 24 h, 10 µM worked out at 111%. Besides, under setting [2], the viability at 24 h, 0.01 µM was found to be 384%; the viability at 24 h, 0.1 µM turned out to be 380%; the viability at 24 h, 1 µM was found to be 321%; the viability at 24 h, 10 µM was found to be 289%.
